Reference: US20030119812A1, “Method for decreasing capillary permeability in the retina” (priority 2001, published 2003)

Test system: BRB breakdown in mice exposed to vascular endothelial growth factor (VEGF)
Assay: BRB breakdown quantitated with [3H]-mannitol tracer in mice given intravitreal VEGF
Type: in vivo, C57B/J6 mice
Excerpt: Intraperitoneally administered radiolabeled tracer can be used to quantitate BRB breakdown in mice exposed to vascular endothelial growth factor (VEGF). This technique is particularly advantageous with neonatal mice because of the technical difficulty involved with intravascular injections. Also, the comparison of retinas from injected and control eyes to tissues without a blood-tissue barrier corrects for variations in the amount of isotope injected or absorbed into the circulation.
Ten six- to seven-week-old C57B/J6 mice (Jackson Labs, Bar Harbor, Me.) are weighed to determine the proper dosage of anesthesia and tracer required. Mice are anesthetized with a solution containing 25 mg/kg ketamine (Ketaset; Fort Dodge Animal Health, Fort Dodge, Iowa) and 4 mg/kg rompun (Tranquived; Vedco, St. Joseph, Mo.) diluted 1:10 in saline prior to injection. Five mice are subjected to gavage with 50 mg/kg N-benzoyl staurosporine for three days prior to intravitreal administration of VEGF; the other five mice are subjected to gavage with vehicle.
Tropicamide (1%) is used to dilate the pupils of anesthetized mice. Under a dissecting microscope, a Harvard injector (PLI 100) is used with a glass pipet pulled to a diameter of 13-20 μm to inject 1 μl of saline containing VEGF (R&D Systems, Minneapolis, Minn.). The eyes are entered posterior to the limbus, directing the pipet toward the optic nerve. The solution is then deposited just in front of the retina without inflicting any damage to the lens. […]
One ml NCSII (Amersham, Chicago, Ill.) solubilizing solution is added to each vial and the vials are incubated overnight in a 50° C. water bath. […] The specimens are counted on a Wallac 1409 Liquid Scintillation Counter (Gaithersburg, :Md.).
The counts per mg tissue are determined for treated (with N-benzoyl staurosporine) and untreated retina, lung, and kidney. Ratios of these values for treated or untreated retina/lung or kidney and for lung/kidney are calculated. […]

CO[C@@H]1[C@H](N(C)C(=O)c2ccccc2)C[C@H]2O[C@]1(C)n1c3ccccc3c3c4c(c5c6ccccc6n2c5c31)C(=O)NC4 [N-benzoyl staurosporine]
radioactivity in the retinas (leakage of radioactive tracer out of the retinal blood vessels) (50 mg/kg N-benzoyl staurosporine by gavage versus vehicle gavage, before intravitreal VEGF): significantly less radioactivity
retina/kidney ratio (50 mg/kg by gavage for three days before intravitreal VEGF 10^-6 M, [3H]-mannitol at 6 hours, VEGF/vehicle 0.6806±0.1060, Student-t value 0.0201): 0.3881±0.0436
retina/lung ratio (cpm per mg of retina/cpm per mg of lung) (50 mg/kg by gavage for three days before intravitreal VEGF 10^-6 M, [3H]-mannitol at 6 hours, VEGF/vehicle 0.8785±0.0946, Student-t value 0.0467): 0.6326±0.0656
